Measurements taken from article PMC12281424, “A Rac-specific competitive inhibitor of guanine nucleotide binding reduces metastasis in triple-negative breast cancer” (Cell Reports Medicine, 2025).
Entries after “also recorded” stand apart in the source; their conditions may differ.

Columns and labels:
Glutamate, NMDA, Glycine = experiment: Safety screen; assay type: binding, rat
Procedure: (§1) Blood cell counts, kinase profiler, safety screen, bacterial cytotoxicity, Ames, micronucleus assays were performed by the company Eurofins (France). The kinase profiler was performed by the company Eurofins (Discovery, Panlab and Cerep).

SGK2(h) = SGK2(h) (Homo sapiens, UniProt Q9HBY8); experiment: Kinase Profiler; assay type: biochemical
Procedure: (§2) The kinase profiler was performed by the company Eurofins (Discovery, Panlab and Cerep).

CDK5/p25(h) = CDK5/p25(h) (Homo sapiens, UniProt Q00535); experiment: Kinase Profiler; assay type: biochemical
Sequence of CDK5/p25(h) (Q00535 whole entry): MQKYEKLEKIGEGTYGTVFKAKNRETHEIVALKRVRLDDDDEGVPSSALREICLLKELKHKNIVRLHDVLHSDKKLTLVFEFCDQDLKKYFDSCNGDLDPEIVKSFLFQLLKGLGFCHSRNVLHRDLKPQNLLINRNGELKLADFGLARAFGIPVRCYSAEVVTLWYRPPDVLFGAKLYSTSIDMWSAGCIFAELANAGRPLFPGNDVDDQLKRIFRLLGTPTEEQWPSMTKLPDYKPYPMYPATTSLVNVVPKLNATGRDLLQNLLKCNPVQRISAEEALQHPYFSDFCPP
Sequence of CDK5/p25(h) (Q15078 99-307 partner limits assumed): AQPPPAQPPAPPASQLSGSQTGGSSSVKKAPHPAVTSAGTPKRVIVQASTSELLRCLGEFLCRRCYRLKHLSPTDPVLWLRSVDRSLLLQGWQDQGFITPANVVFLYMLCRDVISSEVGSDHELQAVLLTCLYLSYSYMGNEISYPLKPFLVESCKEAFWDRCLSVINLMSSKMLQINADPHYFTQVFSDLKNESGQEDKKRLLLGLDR
Procedure: as §1

Hck(h) = Hck(h) (Homo sapiens, UniProt P08631); experiment: Kinase Profiler; assay type: biochemical
Sequence of Hck(h) (P08631 whole entry): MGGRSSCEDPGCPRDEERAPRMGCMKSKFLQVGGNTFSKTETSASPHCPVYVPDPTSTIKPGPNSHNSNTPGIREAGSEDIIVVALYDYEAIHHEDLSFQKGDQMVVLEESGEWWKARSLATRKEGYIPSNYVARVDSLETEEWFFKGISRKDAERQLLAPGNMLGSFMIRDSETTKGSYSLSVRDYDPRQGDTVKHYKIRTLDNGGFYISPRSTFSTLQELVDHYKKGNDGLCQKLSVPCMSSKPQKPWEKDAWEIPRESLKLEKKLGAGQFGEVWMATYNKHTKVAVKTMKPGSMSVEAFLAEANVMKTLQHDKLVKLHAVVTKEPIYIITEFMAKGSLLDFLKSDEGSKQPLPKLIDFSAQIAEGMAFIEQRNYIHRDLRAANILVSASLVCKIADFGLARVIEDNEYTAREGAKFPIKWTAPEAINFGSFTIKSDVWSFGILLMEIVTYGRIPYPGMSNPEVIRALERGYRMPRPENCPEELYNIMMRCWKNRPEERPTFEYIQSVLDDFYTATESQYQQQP
Procedure: as §2

Adrenergic α1D = Adrenergic α1D (Homo sapiens, UniProt P25100); experiment: Safety screen; assay type: binding
Procedure: (§3) Blood cell counts, kinase profiler, safety screen, bacterial cytotoxicity, Ames, micronucleus assays were performed by the company Eurofins (France).

Cyclooxygenase COX-1 = Cyclooxygenase COX-1 (Homo sapiens, UniProt P23219); experiment: Safety screen; assay type: biochemical
Procedure: as §1

eEF-2K(h) = eEF-2K(h) (Homo sapiens, UniProt O00418); experiment: Kinase Profiler; assay type: biochemical
Procedure: as §2

[1] = target: Leukotriene, Cysteinyl CysLT1 (Homo sapiens, UniProt Q9Y271); experiment: Safety screen; assay type: binding
Sequence of Leukotriene, Cysteinyl CysLT1 (Q9Y271 whole entry): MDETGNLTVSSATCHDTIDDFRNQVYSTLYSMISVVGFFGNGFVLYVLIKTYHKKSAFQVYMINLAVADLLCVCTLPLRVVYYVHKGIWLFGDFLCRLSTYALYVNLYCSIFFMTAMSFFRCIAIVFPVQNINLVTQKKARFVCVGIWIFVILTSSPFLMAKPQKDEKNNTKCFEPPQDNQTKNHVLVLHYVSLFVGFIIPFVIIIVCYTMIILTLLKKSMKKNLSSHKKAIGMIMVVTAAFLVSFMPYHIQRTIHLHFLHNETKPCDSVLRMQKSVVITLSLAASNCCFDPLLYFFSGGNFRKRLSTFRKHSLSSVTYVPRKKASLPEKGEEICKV
Procedure: as §3

4T1 tumor cells = experiment: Syngeneic breast cancer model; assay type: in vivo, mouse; details: BALB/c mice
Procedure: Figure 6 A41 decreases metastasis of TNBC cells in vivo (A) Representative images of luciferase bioluminescence intensities (BLI) in whole body, legs, and ovaries/uterus 4 weeks after resection of MD1-MB-468 Luc tumor in NMRI nude mice not treated (control) and treated with A41 (25 mg/kg/day, intraperitoneally for 4 weeks). (B) Metastasis frequency quantification based on ex vivo BLI measurements in indicated organs from control (black bars) and A41-treated mice 4 weeks after tumor resection (white bars) (N = 10–15 mice; ∗p < 0.05 vs. controls). (C) BLI quantification in legs and ovaries/uterus from control (black squares) and A41-treated (white squares) NMRI nude mice 4 weeks after tumor resection (N = 10–15 mice; ∗p < 0.05 vs. controls). (D) Cumulative proportion of immunocompetent control (red) and A41-treated mice (blue) displaying regrowth of the primary tumor after its resection. (E) Metastasis frequency quantified from ex vivo BLI measurements in leg bones, lungs, kidneys, and ovaries/uterus from immunocompetent control (black bar) and A41-treated (white bar) mice (N = 10 mice; ∗p < 0.05 vs. control). (F) Survival curve of immunocompetent control (red) and A41-treated mice (blue) after primary tumor resection (day 0).
To circumvent this limitation and evaluate if the immune system could affect the anti-metastatic property of A41, we evaluated its effect in a syngeneic model. We injected murine 4T1 tumor cells into the mammary fat pad of immunocompetent BALB/c mice.

MST3(h) = MST3(h) (Homo sapiens, UniProt Q9Y6E0); experiment: Kinase Profiler; assay type: biochemical
Sequence of MST3(h) (Q9Y6E0 whole entry): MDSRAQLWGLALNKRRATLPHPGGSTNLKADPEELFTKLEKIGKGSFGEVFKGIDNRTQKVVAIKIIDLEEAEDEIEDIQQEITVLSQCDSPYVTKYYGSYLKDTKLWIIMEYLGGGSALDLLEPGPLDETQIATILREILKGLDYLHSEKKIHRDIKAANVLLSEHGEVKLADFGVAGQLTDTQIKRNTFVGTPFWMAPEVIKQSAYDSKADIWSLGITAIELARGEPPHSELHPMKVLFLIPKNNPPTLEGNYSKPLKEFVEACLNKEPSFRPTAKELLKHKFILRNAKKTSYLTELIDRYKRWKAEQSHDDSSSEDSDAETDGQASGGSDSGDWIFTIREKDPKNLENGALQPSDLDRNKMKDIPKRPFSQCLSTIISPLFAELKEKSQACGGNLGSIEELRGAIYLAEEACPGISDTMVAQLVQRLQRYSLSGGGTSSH
Procedure: as §2

[2] = test system: GABAA, Chloride Channel, TBOB; experiment: Safety screen; assay type: binding, rat
Procedure: as §3

Tie2(R849W)(h) = Tie2(R849W)(h) (Homo sapiens, UniProt Q02763, R849W); experiment: Kinase Profiler; assay type: biochemical
Procedure: as §1

GRK6(h) = GRK6(h) (Homo sapiens, UniProt P43250); experiment: Kinase Profiler; assay type: biochemical
Procedure: as §1

AAK1(h) = AAK1(h) (Homo sapiens, UniProt Q2M2I8); experiment: Kinase Profiler; assay type: biochemical
Sequence of AAK1(h) (Q2M2I8 whole entry): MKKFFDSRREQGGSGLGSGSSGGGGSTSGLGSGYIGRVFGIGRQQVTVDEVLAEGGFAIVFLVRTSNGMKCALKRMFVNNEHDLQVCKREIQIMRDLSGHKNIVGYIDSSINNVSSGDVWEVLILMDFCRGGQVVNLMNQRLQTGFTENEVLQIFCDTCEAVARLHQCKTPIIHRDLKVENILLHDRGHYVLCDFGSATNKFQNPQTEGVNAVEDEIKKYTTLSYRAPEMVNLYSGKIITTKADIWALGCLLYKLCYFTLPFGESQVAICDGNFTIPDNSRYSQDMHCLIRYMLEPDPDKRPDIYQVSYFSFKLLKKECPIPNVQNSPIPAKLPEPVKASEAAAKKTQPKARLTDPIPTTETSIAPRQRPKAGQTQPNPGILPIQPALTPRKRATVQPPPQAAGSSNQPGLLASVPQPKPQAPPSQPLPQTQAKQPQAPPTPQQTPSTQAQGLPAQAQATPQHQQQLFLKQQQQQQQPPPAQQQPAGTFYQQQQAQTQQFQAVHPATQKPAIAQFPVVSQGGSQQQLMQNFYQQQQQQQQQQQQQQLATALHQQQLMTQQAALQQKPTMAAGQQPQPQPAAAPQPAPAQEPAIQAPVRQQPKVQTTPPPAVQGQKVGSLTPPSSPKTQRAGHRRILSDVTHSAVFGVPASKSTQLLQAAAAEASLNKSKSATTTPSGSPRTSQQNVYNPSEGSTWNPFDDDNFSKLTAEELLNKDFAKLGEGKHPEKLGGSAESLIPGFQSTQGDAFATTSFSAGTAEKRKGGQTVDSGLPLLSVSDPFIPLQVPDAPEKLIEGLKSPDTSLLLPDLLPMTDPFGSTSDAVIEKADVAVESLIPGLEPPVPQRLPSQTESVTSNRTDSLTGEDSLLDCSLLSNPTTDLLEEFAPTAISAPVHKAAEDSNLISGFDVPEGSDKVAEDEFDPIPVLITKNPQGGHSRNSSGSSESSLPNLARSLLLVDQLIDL
Procedure: as §2

CT26 cells = experiment: Colorectal tumor model (hepatic metastasis); assay type: in vivo, mouse; details: 25 mg/kg/day i.p., 2 weeks after s.c. implantation
Description: Figure 7 A41 decreases metastasis of colorectal cancer cells in vivo (A–C) Therapeutic effect of A41 on the pulmonary metastasis formation of colorectal circulating tumoral cells (CT26 cells). In control, A41-, and cisplatin-treated mice, metastasis surface (A), survival (B), and body weight (C) were quantified (N = 10 mice; ∗p < 0.05 vs. controls). (D) Therapeutic effect of A41 on colorectal tumor-dependent hepatic metastasis formation (N = 5–8 mice; ∗p < 0.05, ∗∗p < 0.01, and ∗∗∗p < 0.001 vs. controls).
8 weeks-old BALB/c female mice were obtained from the School of Veterinary Sciences at the National University of La Plata and treated in accordance with the Canadian Council on Animal Care and ARRIVE guidelines. 1x10^6 CT26 viable cells were resuspended in PBS (100 μL) and injected subcutaneously into the right flank of each animal. Mice were distributed and treated as follows: control, consist in a daily intraperitoneal (ip) administration of vehicle (5% DMSO, 45% PEG400); A41, ip administration of 25 mg/kg BW/day; 5-FU, ip administration 20 mg/kgBW/week in sterile water; A41+5-FU, ip administration of A41 and 5-FU treatments. Liver metastases were identified and quantified under a stereoscopic magnifying glass. These lesions were distinguished by their isolated circular shape, their marked whitish color contrasting with the reddish liver tissue, and their raised appearance.

ErbB2(h) = ErbB2(h) (Homo sapiens, UniProt P04626); experiment: Kinase Profiler; assay type: biochemical
Procedure: as §2

Cannabinoid CB2 = Cannabinoid CB2 (Homo sapiens, UniProt P34972); experiment: Safety screen; assay type: binding
Sequence of Cannabinoid CB2 (P34972 whole entry): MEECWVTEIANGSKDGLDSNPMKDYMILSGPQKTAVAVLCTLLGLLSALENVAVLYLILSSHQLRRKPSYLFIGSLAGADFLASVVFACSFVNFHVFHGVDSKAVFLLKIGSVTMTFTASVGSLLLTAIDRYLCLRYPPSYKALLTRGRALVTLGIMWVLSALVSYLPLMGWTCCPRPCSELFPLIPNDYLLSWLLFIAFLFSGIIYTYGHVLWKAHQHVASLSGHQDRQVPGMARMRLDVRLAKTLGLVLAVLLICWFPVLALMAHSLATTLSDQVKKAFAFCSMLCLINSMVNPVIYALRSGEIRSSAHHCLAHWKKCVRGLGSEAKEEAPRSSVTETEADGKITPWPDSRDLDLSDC
Procedure: as §3

Rsk1(r) = Rsk1(r) (Rattus norvegicus, UniProt Q63531); experiment: Kinase Profiler; assay type: biochemical
Procedure: as §2

Calcium Channel N-Type = Calcium Channel N-Type (Rattus norvegicus, UniProt Q02294); experiment: Safety screen; assay type: binding
BrSK1(h) = BrSK1(h) (Homo sapiens, UniProt Q8TDC3); experiment: Kinase Profiler; assay type: biochemical
Procedure: as §1

CaMKIIβ(h) = CaMKIIβ(h) (Homo sapiens, UniProt Q13554); experiment: Kinase Profiler; assay type: biochemical
Sequence of CaMKIIβ(h) (Q13554 whole entry): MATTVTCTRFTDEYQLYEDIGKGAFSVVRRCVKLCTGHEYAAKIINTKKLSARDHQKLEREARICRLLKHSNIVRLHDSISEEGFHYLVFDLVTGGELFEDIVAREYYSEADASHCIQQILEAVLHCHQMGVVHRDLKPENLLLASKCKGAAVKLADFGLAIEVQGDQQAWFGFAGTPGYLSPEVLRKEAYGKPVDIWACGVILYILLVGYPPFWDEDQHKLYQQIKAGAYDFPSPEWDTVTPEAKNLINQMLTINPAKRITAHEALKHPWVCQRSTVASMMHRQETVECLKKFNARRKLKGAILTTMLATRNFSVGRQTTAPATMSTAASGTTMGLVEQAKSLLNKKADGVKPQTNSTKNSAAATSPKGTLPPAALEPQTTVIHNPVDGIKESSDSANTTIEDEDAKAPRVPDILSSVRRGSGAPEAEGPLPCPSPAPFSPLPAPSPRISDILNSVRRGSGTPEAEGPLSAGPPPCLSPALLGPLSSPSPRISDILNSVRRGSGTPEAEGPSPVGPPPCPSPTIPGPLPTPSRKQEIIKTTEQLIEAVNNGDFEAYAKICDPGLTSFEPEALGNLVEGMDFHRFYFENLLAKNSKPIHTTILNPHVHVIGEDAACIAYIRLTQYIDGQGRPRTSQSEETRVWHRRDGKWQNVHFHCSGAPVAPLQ
Procedure: as §2

[3] = target: Cholecystokinin CCK2 (CCKB) (Homo sapiens, UniProt P32239); experiment: Safety screen; assay type: binding
Sequence of Cholecystokinin CCK2 (CCKB) (P32239 whole entry): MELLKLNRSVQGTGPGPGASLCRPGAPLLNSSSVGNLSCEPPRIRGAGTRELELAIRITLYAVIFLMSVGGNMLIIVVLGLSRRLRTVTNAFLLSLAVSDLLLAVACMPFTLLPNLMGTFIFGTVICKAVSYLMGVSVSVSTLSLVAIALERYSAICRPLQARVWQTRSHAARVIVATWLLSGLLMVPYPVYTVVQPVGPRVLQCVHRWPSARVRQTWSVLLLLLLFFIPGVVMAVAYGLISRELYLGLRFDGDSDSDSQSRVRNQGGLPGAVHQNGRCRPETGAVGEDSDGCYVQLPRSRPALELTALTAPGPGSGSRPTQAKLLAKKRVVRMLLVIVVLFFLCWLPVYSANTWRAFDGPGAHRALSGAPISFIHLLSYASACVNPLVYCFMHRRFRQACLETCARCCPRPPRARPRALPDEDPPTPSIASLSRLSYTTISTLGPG
Procedure: as §3

cSRC(h) = cSRC(h) (Homo sapiens, UniProt P12931); experiment: Kinase Profiler; assay type: biochemical
Sequence of cSRC(h) (P12931 whole entry): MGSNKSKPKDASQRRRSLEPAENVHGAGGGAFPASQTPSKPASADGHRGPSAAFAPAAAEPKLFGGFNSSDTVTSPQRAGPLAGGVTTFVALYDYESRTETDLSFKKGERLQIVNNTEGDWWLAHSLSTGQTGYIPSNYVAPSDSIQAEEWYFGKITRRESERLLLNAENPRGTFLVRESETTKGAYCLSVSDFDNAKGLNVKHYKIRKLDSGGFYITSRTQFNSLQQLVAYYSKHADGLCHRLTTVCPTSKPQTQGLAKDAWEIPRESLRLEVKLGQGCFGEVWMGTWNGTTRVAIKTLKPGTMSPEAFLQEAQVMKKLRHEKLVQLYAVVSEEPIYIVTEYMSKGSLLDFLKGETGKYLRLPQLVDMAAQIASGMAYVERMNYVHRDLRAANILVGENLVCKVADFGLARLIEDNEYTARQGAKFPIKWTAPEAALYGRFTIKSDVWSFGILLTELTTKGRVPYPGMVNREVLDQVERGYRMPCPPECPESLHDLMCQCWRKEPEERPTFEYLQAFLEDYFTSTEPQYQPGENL
Procedure: as §2

GRK7(h) = GRK7(h) (Homo sapiens, UniProt Q8WTQ7); experiment: Kinase Profiler; assay type: biochemical
Procedure: as §1

ROCK-II(h) = ROCK-II(h) (Homo sapiens, UniProt O75116); experiment: Kinase Profiler; assay type: biochemical
Procedure: as §1

**Q.** With `COc1ccc(OC)c(NS(=O)(=O)c2ccc(NC(=O)CCSc3ccc(C)cc3)cc2)c1` [Compound A41] as the molecule, how does the “% inh.” value (Glutamate, NMDA, Glycine) read?
**A.** 7%

**Q.** What about the “Activity(%)” value (SGK2(h)) of the same molecule?
**A.** 117%

**Q.** And the “Activity(%)” value (CDK5/p25(h))?
**A.** 110%

**Q.** And the “Activity(%)” value (Hck(h))?
**A.** 111%

**Q.** What about the “% inh.” value (Adrenergic α1D) of the same molecule?
**A.** 21%

**Q.** What about the “% inh.” value (Cyclooxygenase COX-1) of the same molecule?
**A.** -11%

**Q.** And the “Activity(%)” value (eEF-2K(h))?
**A.** 97%

**Q.** And the “% inh.” value [1]?
**A.** 14%

**Q.** What about the “frequency of primary tumor re-growth (mice with regrowth)” value (4T1 tumor cells; 4 weeks post resection) of the same molecule?
**A.** 40%

**Q.** What about the survival rate (4T1 tumor cells; 4 weeks post resection) of the same molecule?
**A.** 80%

**Q.** What about the metastasis frequency (4T1 tumor cells; after primary tumor resection) of the same molecule?
**A.** significantly reduced metastasis frequency

**Q.** And the “Activity(%)” value (MST3(h))?
**A.** 95%

**Q.** And the “% inh.” value [2]?
**A.** 45%

**Q.** And the “Activity(%)” value (Tie2(R849W)(h))?
**A.** 101%

**Q.** What about the “Activity(%)” value (GRK6(h)) of the same molecule?
**A.** 100%

**Q.** What about the “Activity(%)” value (AAK1(h)) of the same molecule?
**A.** 105%

**Q.** And the “number of liver metastases” value (CT26 cells)?
**A.** significantly reduced the number of metastases; also recorded: more effective than 5-fluorouracil (5FU)

**Q.** What about the “Activity(%)” value (ErbB2(h)) of the same molecule?
**A.** 116%

**Q.** What about the “% inh.” value (Cannabinoid CB2) of the same molecule?
**A.** 36%

**Q.** And the “Activity(%)” value (Rsk1(r))?
**A.** 128%

**Q.** And the “% inh.” value (Calcium Channel N-Type)?
**A.** 3%

**Q.** And the “Activity(%)” value (BrSK1(h))?
**A.** 86%

**Q.** What about the “Activity(%)” value (CaMKIIβ(h)) of the same molecule?
**A.** 112%

**Q.** And the “% inh.” value [3]?
**A.** 0%

**Q.** And the “Activity(%)” value (cSRC(h))?
**A.** 111%

**Q.** And the “Activity(%)” value (GRK7(h))?
**A.** 100%

**Q.** And the “Activity(%)” value (ROCK-II(h))?
**A.** 93%
